Laboratory results reported in patent US20240034726A9, “MAP KINASE KINASE (MKK7) INHIBITORS AND USES THEREOF” (Dana-Farber Cancer Institute, Inc., priority 2020, published 2024).

Key:
Assay in all cases: KINOMEscan
Format in all cases: binding
[1] = molecular target: T1, JAK1(JH1domain-catalytic) (Homo sapiens, UniProt P23458)
T1 construct: JAK1(JH1domain); purchased KINOMEscan (Ambit) screening platform
Text: (§1) The activity of the compounds was confirmed using Compound S-(I-1) in the KINOMEscan screening platform.

[2] = molecular target: T2, JAK1(JH2domain-pseudokinase) (Homo sapiens, UniProt P23458)
T2 construct: JAK1(JH2domain-; purchased KINOMEscan (Ambit) screening platform
Text: as §1

[3] = molecular target: T3, JAK2(JH1domain-catalytic) (Homo sapiens, UniProt O60674)
T3 construct: JAK2(JH1domain-; purchased KINOMEscan (Ambit) screening platform
Text: as §1

JNK1 = molecular target: T4, JNK1 (Homo sapiens, UniProt P45983)
T4 construct: purchased KINOMEscan (Ambit) screening platform
Text: as §1

JNK2 = molecular target: T5, JNK2 (Homo sapiens, UniProt P45984)
T5 construct: purchased KINOMEscan (Ambit) screening platform
Text: as §1

JNK3 = molecular target: T6, JNK3 (Homo sapiens, UniProt P53779)
T6 construct: purchased KINOMEscan (Ambit) screening platform
Text: as §1

LATS2 = molecular target: T7, LATS2 (Homo sapiens, UniProt Q9NRM7)
T7 construct: purchased KINOMEscan (Ambit) screening platform
Text: as §1

LOK = molecular target: T8, LOK (Homo sapiens, UniProt O94804)
T8 construct: purchased KINOMEscan (Ambit) screening platform
Text: as §1

LZK = molecular target: T9, LZK (Homo sapiens, UniProt O43283)
T9 construct: purchased KINOMEscan screening platform (Ambit)
Text: as §1

MAP4K3 = molecular target: T10, MAP4K3 (Homo sapiens, UniProt Q8IVH8)
T10 construct: purchased KINOMEscan screening platform (Ambit)
Text: as §1

MARK4 = molecular target: T11, MARK4 (Homo sapiens, UniProt Q96L34)
T11 construct: purchased KINOMEscan screening platform (Ambit)
Text: as §1

MET = molecular target: T12, MET (Homo sapiens, UniProt P08581)
T12 construct: purchased KINOMEscan screening platform (Ambit)
Text: as §1

MET(M1250T) = molecular target: T13, MET(M1250T) (Homo sapiens, UniProt P08581, M1250T)
T13 construct: purchased KINOMEscan screening platform (Ambit)
Text: as §1

MET(Y1235D) = molecular target: T14, MET(Y1235D) (Homo sapiens, UniProt P08581, Y1235D)
T14 construct: purchased KINOMEscan screening platform (Ambit)
Text: as §1

MKK7 = molecular target: T15, MKK7 (Homo sapiens, UniProt O14733)
T15 construct: purchased KINOMEscan screening platform (Ambit)
Text: as §1

MLK3 = molecular target: T16, MLK3 (Homo sapiens, UniProt Q16584)
T16 construct: purchased KINOMEscan screening platform (Ambit)
Text: as §1

MST1 = molecular target: T17, MST1 (Homo sapiens, UniProt Q13043)
T17 construct: purchased KINOMEscan screening platform (Ambit)
Text: as §1

MST3 = molecular target: T18, MST3 (Homo sapiens, UniProt Q9Y6E0)
T18 construct: purchased KINOMEscan screening platform (Ambit)
Text: as §1

PFTK1 = molecular target: T19, PFTK1 (Homo sapiens, UniProt O94921)
T19 construct: purchased KINOMEscan screening platform (Ambit)
Text: as §1

PIP5K1C = molecular target: T20, PIP5K1C (Homo sapiens, UniProt O60331)
T20 construct: purchased KINOMEscan (Ambit) screening platform
Text: as §1

PKMYT1 = molecular target: T21, PKMYT1 (Homo sapiens, UniProt Q99640)
T21 construct: purchased KINOMEscan (Ambit) screening platform
Text: as §1

PLK2 = molecular target: T22, PLK2 (Homo sapiens, UniProt Q9NYY3)
T22 construct: purchased KINOMEscan (Ambit) screening platform
Text: as §1

PRKR = molecular target: T23, PRKR (Homo sapiens, UniProt P19525)
T23 construct: KINOMEscan (Ambit)
Text: as §1

QSK = molecular target: T24, QSK (Homo sapiens, UniProt Q9Y2K2)
T24 construct: KINOMEscan (Ambit)
Text: as §1

[4] = molecular target: T25, RSK4(Kin.Dom.1-N-terminal) (Homo sapiens, UniProt Q9UK32)
T25 construct: Kin.Dom.1; purchased KINOMEscan (Ambit)
Text: as §1

[5] = molecular target: T26, RSK4(Kin.Dom.2-C-terminal) (Homo sapiens, UniProt Q9UK32)
T26 construct: Kin.Dom.2; purchased KINOMEscan (Ambit)
Text: as §1

SIK = molecular target: T27, SIK (Homo sapiens, UniProt P57059)
T27 construct: purchased KINOMEscan (Ambit)
Text: as §1

SNARK = molecular target: T28, SNARK (Homo sapiens, UniProt Q9H093)
T28 construct: purchased KINOMEscan (Ambit)
Text: as §1

SYK = molecular target: T29, SYK (Homo sapiens, UniProt P43405)
T29 construct: purchased KINOMEscan (Ambit)
Text: as §1

[6] = molecular target: T30, TYK2(JH1domain-catalytic) (Homo sapiens, UniProt P29597)
T30 construct: TYK2(JH1domain); purchased KINOMEscan (Ambit) screening platform
Text: as §1

[7] = molecular target: T31, TYK2(JH2domain-pseudokinase) (Homo sapiens, UniProt P29597)
T31 construct: TYK2(JH2domain); purchased KINOMEscan (Ambit) screening platform
Text: as §1

ULK1 = molecular target: T32, ULK1 (Homo sapiens, UniProt O75385)
T32 construct: purchased KINOMEscan (Ambit) screening platform
Text: as §1

ULK3 = molecular target: T33, ULK3 (Homo sapiens, UniProt Q6PHR2)
T33 construct: purchased KINOMEscan (Ambit) screening platform
Text: as §1

WNK1 = molecular target: T34, WNK1 (Homo sapiens, UniProt Q9H4A3)
T34 construct: purchased KINOMEscan (Ambit) screening platform
Text: as §1

p38-alpha = molecular target: T35, p38-alpha (Homo sapiens, UniProt Q16539)
T35 construct: purchased KINOMEscan (Ambit)
Text: as §1

T24 sequence (Q9Y2K2 whole entry): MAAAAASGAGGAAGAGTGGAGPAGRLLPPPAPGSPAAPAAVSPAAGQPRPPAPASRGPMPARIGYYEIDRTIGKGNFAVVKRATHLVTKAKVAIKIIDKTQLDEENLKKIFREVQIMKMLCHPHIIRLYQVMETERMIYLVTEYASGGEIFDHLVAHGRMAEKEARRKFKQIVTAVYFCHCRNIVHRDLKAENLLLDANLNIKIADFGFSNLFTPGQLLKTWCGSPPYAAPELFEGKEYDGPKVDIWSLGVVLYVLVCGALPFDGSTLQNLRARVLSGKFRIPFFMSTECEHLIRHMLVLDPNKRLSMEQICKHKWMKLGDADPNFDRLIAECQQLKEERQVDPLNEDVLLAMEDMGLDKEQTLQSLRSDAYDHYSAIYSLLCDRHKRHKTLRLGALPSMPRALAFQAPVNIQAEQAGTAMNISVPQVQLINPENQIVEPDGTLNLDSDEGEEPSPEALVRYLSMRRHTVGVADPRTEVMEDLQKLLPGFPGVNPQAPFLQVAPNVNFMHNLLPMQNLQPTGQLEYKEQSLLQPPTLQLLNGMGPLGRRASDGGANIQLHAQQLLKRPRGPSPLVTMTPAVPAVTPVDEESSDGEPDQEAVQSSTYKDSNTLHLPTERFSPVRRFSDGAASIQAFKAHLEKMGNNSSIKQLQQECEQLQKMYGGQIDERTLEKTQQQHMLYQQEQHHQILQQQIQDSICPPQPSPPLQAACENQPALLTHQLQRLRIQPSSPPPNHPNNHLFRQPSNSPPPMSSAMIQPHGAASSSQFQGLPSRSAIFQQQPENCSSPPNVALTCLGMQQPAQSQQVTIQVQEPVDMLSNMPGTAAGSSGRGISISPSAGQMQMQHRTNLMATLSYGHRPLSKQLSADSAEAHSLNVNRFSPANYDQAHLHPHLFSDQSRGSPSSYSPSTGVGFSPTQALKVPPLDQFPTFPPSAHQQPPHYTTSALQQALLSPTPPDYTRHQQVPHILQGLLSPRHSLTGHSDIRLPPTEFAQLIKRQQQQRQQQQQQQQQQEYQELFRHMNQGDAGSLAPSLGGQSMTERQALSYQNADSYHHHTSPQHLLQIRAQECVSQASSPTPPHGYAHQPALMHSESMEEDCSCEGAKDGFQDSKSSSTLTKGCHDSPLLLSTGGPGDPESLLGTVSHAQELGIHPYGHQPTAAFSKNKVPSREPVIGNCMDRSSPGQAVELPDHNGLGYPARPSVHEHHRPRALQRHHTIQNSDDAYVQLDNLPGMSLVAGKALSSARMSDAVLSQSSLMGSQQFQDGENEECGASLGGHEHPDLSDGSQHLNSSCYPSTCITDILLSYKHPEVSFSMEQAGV
T23 sequence (P19525 whole entry): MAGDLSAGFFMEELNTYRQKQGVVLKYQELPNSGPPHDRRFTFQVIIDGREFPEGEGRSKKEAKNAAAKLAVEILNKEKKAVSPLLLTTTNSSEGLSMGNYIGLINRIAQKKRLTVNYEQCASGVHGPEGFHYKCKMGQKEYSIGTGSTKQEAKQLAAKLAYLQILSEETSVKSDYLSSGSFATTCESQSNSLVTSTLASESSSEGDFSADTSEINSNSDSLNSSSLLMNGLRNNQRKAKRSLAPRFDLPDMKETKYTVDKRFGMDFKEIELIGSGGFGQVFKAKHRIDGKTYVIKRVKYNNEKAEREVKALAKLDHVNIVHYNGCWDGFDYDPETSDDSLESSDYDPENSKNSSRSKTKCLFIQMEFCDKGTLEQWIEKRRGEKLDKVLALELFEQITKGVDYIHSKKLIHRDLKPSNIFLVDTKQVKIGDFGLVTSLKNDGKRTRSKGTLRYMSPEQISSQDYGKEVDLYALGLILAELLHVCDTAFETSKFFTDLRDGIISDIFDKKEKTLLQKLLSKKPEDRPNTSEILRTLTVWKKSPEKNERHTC
T21 sequence (Q99640 whole entry): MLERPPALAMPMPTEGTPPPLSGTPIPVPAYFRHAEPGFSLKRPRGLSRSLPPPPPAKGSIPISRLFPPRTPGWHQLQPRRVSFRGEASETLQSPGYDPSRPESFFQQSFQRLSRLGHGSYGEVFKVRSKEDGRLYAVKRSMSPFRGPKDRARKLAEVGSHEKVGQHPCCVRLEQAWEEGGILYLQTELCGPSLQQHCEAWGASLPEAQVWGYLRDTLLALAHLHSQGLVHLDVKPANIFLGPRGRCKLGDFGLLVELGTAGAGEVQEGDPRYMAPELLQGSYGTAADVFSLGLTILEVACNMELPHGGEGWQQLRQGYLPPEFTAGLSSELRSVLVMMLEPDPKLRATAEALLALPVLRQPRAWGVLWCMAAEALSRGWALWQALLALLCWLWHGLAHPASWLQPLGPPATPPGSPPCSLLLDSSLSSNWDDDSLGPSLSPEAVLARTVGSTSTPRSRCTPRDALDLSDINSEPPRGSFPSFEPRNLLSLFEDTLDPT
T27 sequence (P57059 whole entry): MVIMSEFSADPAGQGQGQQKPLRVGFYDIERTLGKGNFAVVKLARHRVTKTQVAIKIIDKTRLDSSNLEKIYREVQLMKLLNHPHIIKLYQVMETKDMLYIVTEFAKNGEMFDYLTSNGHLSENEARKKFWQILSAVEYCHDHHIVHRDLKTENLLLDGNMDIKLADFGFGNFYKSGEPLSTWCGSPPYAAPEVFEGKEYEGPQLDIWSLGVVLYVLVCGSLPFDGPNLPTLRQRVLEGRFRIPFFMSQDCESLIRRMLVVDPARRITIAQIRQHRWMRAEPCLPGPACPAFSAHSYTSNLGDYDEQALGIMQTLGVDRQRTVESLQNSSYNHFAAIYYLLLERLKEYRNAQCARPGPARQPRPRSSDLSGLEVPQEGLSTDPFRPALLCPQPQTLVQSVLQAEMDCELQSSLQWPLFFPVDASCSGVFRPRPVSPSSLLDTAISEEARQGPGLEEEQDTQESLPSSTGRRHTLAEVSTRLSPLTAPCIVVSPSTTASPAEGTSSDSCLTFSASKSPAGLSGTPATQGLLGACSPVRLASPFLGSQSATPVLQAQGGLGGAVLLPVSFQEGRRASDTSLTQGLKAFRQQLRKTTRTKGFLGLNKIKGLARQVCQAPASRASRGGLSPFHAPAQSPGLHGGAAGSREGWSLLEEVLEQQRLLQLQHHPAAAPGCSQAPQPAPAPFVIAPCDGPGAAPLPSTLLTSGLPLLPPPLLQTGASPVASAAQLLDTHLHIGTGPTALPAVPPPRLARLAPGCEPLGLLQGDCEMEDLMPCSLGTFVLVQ
T7 sequence (Q9NRM7 whole entry): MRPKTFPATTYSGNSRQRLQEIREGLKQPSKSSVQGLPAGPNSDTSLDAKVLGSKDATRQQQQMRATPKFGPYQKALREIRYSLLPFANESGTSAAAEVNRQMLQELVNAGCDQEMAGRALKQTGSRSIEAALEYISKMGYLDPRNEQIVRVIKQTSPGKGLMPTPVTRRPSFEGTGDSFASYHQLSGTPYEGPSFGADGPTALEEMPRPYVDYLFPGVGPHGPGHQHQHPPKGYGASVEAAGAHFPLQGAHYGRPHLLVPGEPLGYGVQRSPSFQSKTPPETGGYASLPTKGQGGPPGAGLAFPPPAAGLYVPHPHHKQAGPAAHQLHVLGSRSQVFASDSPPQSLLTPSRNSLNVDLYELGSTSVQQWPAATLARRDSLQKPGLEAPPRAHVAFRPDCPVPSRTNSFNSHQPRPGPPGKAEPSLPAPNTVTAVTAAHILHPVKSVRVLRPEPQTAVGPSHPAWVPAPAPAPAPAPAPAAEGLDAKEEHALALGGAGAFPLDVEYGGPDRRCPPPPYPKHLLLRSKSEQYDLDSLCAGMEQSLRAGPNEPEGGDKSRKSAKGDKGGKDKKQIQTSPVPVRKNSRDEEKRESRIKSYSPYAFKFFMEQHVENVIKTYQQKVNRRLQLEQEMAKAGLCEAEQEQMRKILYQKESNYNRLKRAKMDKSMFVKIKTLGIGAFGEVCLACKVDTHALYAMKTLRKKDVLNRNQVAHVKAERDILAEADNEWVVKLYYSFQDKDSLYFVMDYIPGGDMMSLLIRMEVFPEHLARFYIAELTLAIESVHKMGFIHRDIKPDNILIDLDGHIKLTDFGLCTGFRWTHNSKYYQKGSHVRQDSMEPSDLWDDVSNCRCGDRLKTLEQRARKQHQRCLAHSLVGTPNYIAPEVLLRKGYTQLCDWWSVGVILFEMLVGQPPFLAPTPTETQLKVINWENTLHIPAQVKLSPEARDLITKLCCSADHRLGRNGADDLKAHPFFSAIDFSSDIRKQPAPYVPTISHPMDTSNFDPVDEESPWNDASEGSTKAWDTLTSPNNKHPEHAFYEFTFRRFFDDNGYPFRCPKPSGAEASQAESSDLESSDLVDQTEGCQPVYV
T26 sequence (Q9UK32 426-683 limits assumed): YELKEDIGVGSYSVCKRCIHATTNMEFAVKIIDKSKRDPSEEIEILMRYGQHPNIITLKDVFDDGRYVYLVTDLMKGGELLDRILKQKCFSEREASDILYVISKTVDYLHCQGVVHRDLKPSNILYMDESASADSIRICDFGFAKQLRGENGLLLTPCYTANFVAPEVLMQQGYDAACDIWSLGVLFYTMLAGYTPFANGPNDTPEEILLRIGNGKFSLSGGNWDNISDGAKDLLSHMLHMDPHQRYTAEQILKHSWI
T25 sequence (Q9UK32 73-330 limits assumed): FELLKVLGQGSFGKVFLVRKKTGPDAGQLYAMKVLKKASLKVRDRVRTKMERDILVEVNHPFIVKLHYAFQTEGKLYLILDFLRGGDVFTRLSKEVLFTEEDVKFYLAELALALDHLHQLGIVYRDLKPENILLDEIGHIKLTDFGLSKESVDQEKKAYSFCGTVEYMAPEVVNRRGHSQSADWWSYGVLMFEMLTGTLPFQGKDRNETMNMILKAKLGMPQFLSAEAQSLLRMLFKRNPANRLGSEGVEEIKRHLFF
T1 sequence (P23458 875-1153 limits assumed): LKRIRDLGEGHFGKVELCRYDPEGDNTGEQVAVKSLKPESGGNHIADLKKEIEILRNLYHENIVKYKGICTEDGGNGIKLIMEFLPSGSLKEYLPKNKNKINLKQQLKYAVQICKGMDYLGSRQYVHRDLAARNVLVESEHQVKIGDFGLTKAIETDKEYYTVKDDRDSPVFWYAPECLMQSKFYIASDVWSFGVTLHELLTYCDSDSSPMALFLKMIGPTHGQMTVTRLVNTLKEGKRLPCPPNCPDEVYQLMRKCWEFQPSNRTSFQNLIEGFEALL

Question: How did the Score [1] turn out when `C=CC(=O)N1CCC(Nc2nccc(Oc3cc(C(=O)Nc4ccc(CN5CCN(CC)CC5)c(C(F)(F)F)c4)ccc3C)n2)C1` (stereo not drawn) [S-(I-1)] was run?
Answer: Its Score is 62.

Question: What about the Score [2] of the same compound?
Answer: The Score was 100.

Question: And the Score [3]?
Answer: Its Score is 84.

Question: What about the Score (JNK1) of the same compound?
Answer: The Score was 28.

Question: What about the Score (JNK2) of the same compound?
Answer: The Score was 0.35.

Question: What about the Score (JNK3) of the same compound?
Answer: The Score was 52.

Question: And the Score (LATS2)?
Answer: The Score was 100.

Question: And the Score (LOK)?
Answer: The Score was 0.35.

Question: And the Score (LZK)?
Answer: The Score was 100.

Question: What about the Score (MAP4K3) of the same compound?
Answer: The Score was 93.

Question: And the Score (MARK4)?
Answer: The Score was 100.

Question: And the Score (MET)?
Answer: Its Score is 100.

Question: And the Score (MET(M1250T))?
Answer: Its Score is 99.

Question: What about the Score (MET(Y1235D)) of the same compound?
Answer: Its Score is 96.

Question: What about the Score (MKK7) of the same compound?
Answer: Its Score is 0.9.

Question: What about the Score (MLK3) of the same compound?
Answer: Its Score is 97.

Question: What about the Score (MST1) of the same compound?
Answer: Its Score is 100.

Question: What about the Score (MST3) of the same compound?
Answer: Its Score is 88.

Question: What about the Score (PFTK1) of the same compound?
Answer: The Score was 77.

Question: What about the Score (PIP5K1C) of the same compound?
Answer: Its Score is 52.

Question: What about the Score (PKMYT1) of the same compound?
Answer: The Score was 89.

Question: And the Score (PLK2)?
Answer: The Score was 89.

Question: What about the Score (PRKR) of the same compound?
Answer: The Score was 85.

Question: What about the Score (QSK) of the same compound?
Answer: The Score was 87.

Question: What about the Score [4] of the same compound?
Answer: The Score was 90.

Question: What about the Score [5] of the same compound?
Answer: The Score was 91.

Question: What about the Score (SIK) of the same compound?
Answer: The Score was 87.

Question: And the Score (SNARK)?
Answer: The Score was 100.

Question: And the Score (SYK)?
Answer: The Score was 24.

Question: What about the Score [6] of the same compound?
Answer: Its Score is 91.

Question: What about the Score [7] of the same compound?
Answer: The Score was 92.

Question: What about the Score (ULK1) of the same compound?
Answer: The Score was 94.

Question: And the Score (ULK3)?
Answer: Its Score is 78.

Question: What about the Score (WNK1) of the same compound?
Answer: The Score was 86.

Question: And the Score (p38-alpha)?
Answer: Its Score is 0.
